Test [1] concerns normal adult human dermal fibroblasts. As to the kind of experiment: Neosynthesis of hyaluronic acid in normal adult human dermal fibroblasts cultured in monolayers (ELISA on culture media). It counts as cell-based. As to conditions: incubation 24 hours. The method, then:
Confluent monolayers of normal human dermal fibroblasts were obtained by culturing cells obtained from abdominoplasty performed on a person. The fibroblasts were isolated by enzymatic digestion using Dispase and collagenase and were then cultured in DMEM (Dulbecco's Modified Eagle's Medium) and Ham's F12 medium in (1:1) ratio containing 10% of fetal calf serum, antibiotics and amphotericin B.
The reference activator used is transforming growth factor β (TGF-β) at a concentration of 10 ng/ml.
The fibroblasts were incubated for 24 hours at 37° C., under a humid atmosphere and 5% CO2, in the absence (culture medium only) or in the presence of the reference product, or of increasing concentrations of test products (10, 100 and 1000 μg/ml) for both products. The test products were dissolved directly in the culture medium.
At the end of the incubation period, the hyaluronic acid contained in the culture media was quantified using a sensitive and specific ELISA kit.
At the end of the incubation period, the proteins contained in the cellular lysates were quantified by Bradford's spectrocolorimetric method.
The results are given in the form of ng of hyaluronic acid per μg of total proteins of the cell lawn (mean±standard deviation, SD). The statistical significance of the differences observed between the “Control” and “Reference Product” conditions was evaluated by a Student test (Student t-test). The statistical significance of the differences observed between the “Control” and “Test Products” conditions was evaluated product by product, by a one-way analysis of variance (One Way ANOVA or One Way Anova on Ranks+), followed, when necessary, by a Holm-Sidak or Dunn's test (*: p<0.05).

Test [2] shares this test system. As to the kind of experiment: Neosynthesis of elastin in normal adult human dermal fibroblasts cultured in monolayers (spectrocolorimetric method on culture media). It counts as cell-based. As to conditions: incubation 96 hours; for increase in the neosynthesis of elastin: versus control. As for the experimental part:
Confluent monolayers of normal human dermal fibroblasts were obtained by culturing cells obtained from abdominoplasty performed on a person. The fibroblasts are isolated by enzymatic digestion using Dispase and collagenase and then cultivated in DMEM (Dulbecco's Modified Eagle's Medium) and Ham's F12 medium in (1:1) ratio containing 10% of fetal calf serum, antibiotics and amphotericin B.
The reference activator used is ascorbic acid at a concentration of 100 μg/ml.
The fibroblasts were incubated for 96 hours at 37° C., under humid atmosphere and 5% CO2, in the absence (culture medium only) or in the presence of the reference product, or of increasing concentrations of test products (10; 100 and 1000 μg/ml) for both products. The test products were dissolved directly in the culture medium.
At the end of the incubation time, the elastin contained in the culture media was quantified by a spectrocolorimetric method.
At the end of the incubation time, the proteins contained in the cellular lysates were quantified by Bradford's spectrocolorimetric method.
The results are given in the form of ng of elastin per μg of total proteins of the cell lawn (mean±standard deviation, SD). The statistical significance of the differences observed between the “Control” and “Reference Product” conditions was evaluated by a Student test (Student t-test). The statistical significance of the differences observed between the “Control” and “Test Products” conditions was evaluated product by product, by a one-way analysis of variance (One Way ANOVA or One Way Anova on Ranks+), followed, when necessary, by a Holm-Sidak or Dunn's test (*: p<0.05).

Structures can show the parent of a compound that is named as a salt. Marks after values point to notes of the source that are not given here.

This note sets out measurements from US20120015012A1, “COSMETIC COMPOSITION CONTAINING KETOGLUCONIC ACID DERIVATIVES” (SOLIANCE, priority 2009, published 2012).

`O=C(O)C(=O)C(O)C(O)C(O)CO` (stereo not shown) [2KO, calcium salt of 2-keto-(D)-gluconic acid]: the “production of hyaluronic acid, % control” value in test [1] (10 μg/ml) turned out to be 101.2 % control; in test [1] (100 μg/ml), 136.3 % control; in test [1] (1000 μg/ml) it was 192.7 % control. The figures for the “production of hyaluronic acid, mean value” in test [1] (10 μg/ml), in test [1] (100 μg/ml) and in test [1] (1000 μg/ml) were 18.5 ng of hyaluronic acid per μg of total proteins, 25.0* ng of hyaluronic acid per μg of total proteins and 35.3* ng of hyaluronic acid per μg of total proteins, respectively. Moreover, the “increase in the neosynthesis of hyaluronic acid” value was determined as 36.3% in test [1] (100 μg/ml, versus control) and 92.7% in test [1] (1000 μg/ml, versus control). Further, the “production of elastin, % control” value in test [2] (10 μg/ml) is recorded as 139.7 % control; in test [2] (100 μg/ml), 144.6 % control; in test [2] (1000 μg/ml), 135.8 % control. For the same molecule, the results for the “production of elastin, mean value” in test [2] (10 μg/ml), in test [2] (100 μg/ml) and in test [2] (1000 μg/ml) were 12.6* ng of elastin per μg of total proteins, 13.1* ng of elastin per μg of total proteins and 12.3* ng of elastin per μg of total proteins, respectively. The “increase in the neosynthesis of elastin” value worked out at 39.7% in test [2] (10 μg/ml), 44.6% in test [2] (100 μg/ml) and 35.8% in test [2] (1000 μg/ml).

In the case of `O=C([O-])C(O)C(O)C(O)C(=O)CO.[K+]` (stereo not shown) [5KO, potassium salt of 5-keto-(D)-gluconic acid], the results for the “production of hyaluronic acid, % control” value in test [1] (10 μg/ml), in test [1] (100 μg/ml) and in test [1] (1000 μg/ml) were 123.3 % control, 144.9 % control and 144.0 % control, respectively. Also, the “production of hyaluronic acid, mean value” in test [1] (10 μg/ml) was 22.6* ng of hyaluronic acid per μg of total proteins; in test [1] (100 μg/ml), 26.6* ng of hyaluronic acid per μg of total proteins; in test [1] (1000 μg/ml) it was 26.4* ng of hyaluronic acid per μg of total proteins. In addition, the “increase in the neosynthesis of hyaluronic acid” value is 23.3% in test [1] (10 μg/ml, versus control); 44.9% in test [1] (100 μg/ml, versus control); 44.0% in test [1] (1000 μg/ml, versus control). Besides, the “production of elastin, % control” value in test [2] (10 μg/ml) is on record as 104.8 % control; in test [2] (100 μg/ml), 118.9 % control; in test [2] (1000 μg/ml), 184.4 % control. The “production of elastin, mean value” in test [2] (10 μg/ml) is recorded as 9.5 ng of elastin per μg of total proteins; in test [2] (100 μg/ml), 10.7 ng of elastin per μg of total proteins; in test [2] (1000 μg/ml), 16.7* ng of elastin per μg of total proteins. Further, the “increase in the neosynthesis of elastin” value worked out at 18.9% in test [2] (100 μg/ml) and 84.4% in test [2] (1000 μg/ml).

Turning to `O=C1O[C@H]([C@@H](O)CO)C(O)=C1O` [Ascorbic acid, ascorbic acid, reference compound], in test [2] (100 μg/ml), the “production of elastin, % control” value was 140.3 % control; the “production of elastin, mean value” is reported as 12.7*** ng of elastin per μg of total proteins; the “increase in the neosynthesis of elastin” value was 40.3%.

With “TGF-β: reference activator, transforming growth factor β (TGF-β), used at 10 ng/ml [reference compound]”, in test [1] (10 ng/ml), the “production of hyaluronic acid, % control” value amounted to 226.3 % control and the “production of hyaluronic acid, mean value” was 41.5*** ng of hyaluronic acid per μg of total proteins. Besides, in test [1] (10 ng/ml, versus control), the “increase in fibroblast production of hyaluronic acid” value is 126.3%.
